According to patent publication US11014911B2, “CDK2 inhibitors” (Pfizer Inc., priority 2019, dated 2021):

Molecular target: CDK2/Cyclin E1 full length (Homo sapiens (Human), UniProt P24941)
Assay: CDK2/Cyclin E1 full length mobility shift assay
Assay type: biochemical
Description: Cdk2/Cyclin E1 Full Length Mobility Shift Assay
Wild-type CDK2/wild-type full length Cyclin E1 enzyme complex was produced in-house (baculoviral expression, LJIC-2080/LJIC-2103) and phosphorylated by CDK7/Cyclin H1/Matl enzyme complex with CDK2:CDK7 ratio of 50:1 (concentration mg/mL) in the presence of 10 mM MgCl2 and 5 mM ATP at room temperature for one hour. […] The assay was initiated with the addition of ATP, following a fifteen minutes pre-incubation of enzyme and inhibitor at room temperature in the reaction mixture. The reaction was stopped after 45 minutes at room temperature by the addition of 50 μL of 80 mM EDTA.

SMILES | Ki [nM]
CC[C@H](C)NC(=O)O[C@@H]1CC[C@H](c2cc(NC(=O)Cc3cnn(CC)n3)n[nH]2)C1 [Example 339, (1R,3S)-3-(3-{[(2-ethyl-2H-1,2,3-triazol-4-yl)acetyl]amino}-1H-pyrazol-5-yl)cyclopentyl (2S)-butan-2-ylcarbamate] | 0.66
CC(C)NC(=O)O[C@@H]1CC[C@H](c2cc(NC(=O)Cc3ccn(C)n3)n[nH]2)C1 [Example 267, (1R,3S)-3-(3-{[(1-methyl-1H-pyrazol-3-yl)acetyl]amino}-1H-pyrazol-5-yl)cyclopentyl propan-2-ylcarbamate] | 3.02
CCN(C)C(=O)O[C@@H]1CC[C@H](c2cc(NC(=O)Cc3ccno3)n[nH]2)C1 [Example 236, (1R,3S)-3-{3-[(1,2-oxazol-5-ylacetyl)amino]-1H-pyrazol-5-yl}cyclopentyl ethyl(methyl)carbamate] | 3.16
O=C(Cc1cc(F)cc(F)c1)Nc1cc([C@@H]2CC[C@H](OC(=O)NC[C@H]3CCCO3)C2)[nH]n1 [Example 498, (1S,3R)-3-(3-{[(3,5-difluorophenyl)acetyl]amino}-1H-pyrazol-5-yl)cyclopentyl [(2R)-tetrahydrofuran-2-ylmethyl]carbamate] | 4.28
Cc1cc(CC(=O)Nc2cc([C@H]3CC[C@@H](OC(=O)N4C[C@@](C)(O)[C@@H]4C)C3)[nH]n2)on1 [Example 622, (1R,3S)-3-(3-{[(3-methyl-1,2-oxazol-5-yl)acetyl]amino}-1H-pyrazol-5-yl)cyclopentyl (2S,3R)-3-hydroxy-2,3-dimethylazetidine-1-carboxylate] | 4
COc1cnc(CC(=O)Nc2cc([C@H]3CC[C@@H](OC(=O)NCCC(F)(F)F)C3)[nH]n2)s1 [Example 223, (1R,3S)-3-(3-{[(5-methoxy-1,3-thiazol-2-yl)acetyl]amino}-1H-pyrazol-5-yl)cyclopentyl (3,3,3-trifluoropropyl)carbamate] | 2.33
CCCNC(=O)O[C@H]1CC[C@@H](c2cc(NC(=O)Cc3cc(OC)ncc3O)n[nH]2)C1 [Example 193, (1S,3R)-3-(3-{[(5-hydroxy-2-methoxypyridin-4-yl)acetyl]amino}-1H-pyrazol-5-yl)cyclopentyl propylcarbamate] | 0.41
CC(C)NC(=O)O[C@@H]1CC[C@H](c2cc(NC(=O)Cc3cnc(C(F)(F)F)cn3)n[nH]2)C1 [Example 287, (1R,3S)-3-[3-({[5-(trifluoromethyl)pyrazin-2-yl]acetyl}amino)-1H-pyrazol-5-yl]cyclopentyl propan-2-ylcarbamate] | 2.26
O=C(Cc1ccno1)Nc1cc([C@H]2CC[C@@H](OC(=O)NCC(F)F)C2)[nH]n1 [Example 246, (1R,3S)-3-{3-[(1,2-oxazol-5-ylacetyl)amino]-1H-pyrazol-5-yl}cyclopentyl (2,2-difluoroethyl)carbamate] | 3.29
CCC1(NC(=O)O[C@@H]2CC[C@H](c3cc(NC(=O)Cc4cnc(C)cn4)n[nH]3)C2)CC1 [Example 449, (1R,3S)-3-(3-{[(5-methylpyrazin-2-yl)acetyl]amino}-1H-pyrazol-5-yl)cyclopentyl (1-ethylcyclopropyl)carbamate] | 0.39
COC[C@H](C)NC(=O)O[C@@H]1CC[C@H](c2cc(NC(=O)Cc3ncc(OC)s3)n[nH]2)C1 [Example 522, (1R,3S)-3-(3-{[(5-methoxy-1,3-thiazol-2-yl)acetyl]amino}-1H-pyrazol-5-yl)cyclopentyl [(2S)-1-methoxypropan-2-yl]carbamate] | 3.05
Cc1cnc(CC(=O)Nc2cc([C@H]3CC[C@@H](OC(=O)NC(C)CC(F)F)C3)[nH]n2)o1 (single isomer, unassigned) [Example 96] | 2.05
CC(CO)CNC(=O)O[C@@H]1CC[C@H](c2cc(NC(=O)Cc3cc(F)cc(F)c3)n[nH]2)C1 (single isomer, unassigned) [Example 538] | 2.72
COc1cc(CC(=O)Nc2cc([C@@H]3CC[C@H](OC(=O)NCC4CCN(C(C)=O)CC4)C3)[nH]n2)ccn1 [Example 581, (1S,3R)-3-(3-{[(2-methoxypyridin-4-yl)acetyl]amino}-1H-pyrazol-5-yl)cyclopentyl[(1-acetylpiperidin-4-yl)methyl]carbamate] | 2.62
O=C(Cc1ccno1)Nc1cc([C@H]2CC[C@@H](OC(=O)NCC3CC3)C2)[nH]n1 [Example 465, (1R,3S)-3-{3-[(1,2-oxazol-5-ylacetyl)amino]-1H-pyrazol-5-yl}cyclopentyl (cyclopropylmethyl)carbamate] | 1.95
CC[C@H](C)NC(=O)O[C@@H]1CC[C@H](c2cc(NC(=O)Cc3cn4ccc(C)nc4n3)n[nH]2)C1 [Example 357, (1R,3S)-3-(3-{[(7-methylimidazo[1,2-a]pyrimidin-2-yl)acetyl]amino}-1H-pyrazol-5-yl)cyclopentyl (2S)-butan-2-ylcarbamate] | 4.08
Cc1ncc(CC(=O)Nc2cc([C@H]3CC[C@@H](OC(=O)N[C@@H]4CCC[C@@H]4C)C3)[nH]n2)o1 [Example 462, (1R,3S)-3-(3-{[(2-methyl-1,3-oxazol-5-yl)acetyl]amino}-1H-pyrazol-5-yl)cyclopentyl [(1R,2S)-2-methylcyclopentyl]carbamate] | 1.74

SMILES | Ki [nM]
CC[C@H](C)NC(=O)O[C@@H]1CC[C@H](c2cc(NC(=O)c3cnn(C)c3)n[nH]2)C1 [Example 320, (1R,3S)-3-(3-{[(1-methyl-1H-pyrazol-4-yl)carbonyl]amino}-1H-pyrazol-5-yl)cyclopentyl (2S)-butan-2-ylcarbamate] | 2.95
COc1cnc(CC(=O)Nc2cc([C@H]3CC[C@@H](OC(=O)N[C@@H](C)C4CC4)C3)[nH]n2)cn1 [Example 106] | 0.76
CC[C@H](C)NC(=O)O[C@@H]1CC[C@H](c2cc(NC(=O)Cc3cn(CC(F)(F)F)nn3)n[nH]2)C1 [Example 366, (1R,3S)-3-[3-({[1-(2,2,2-trifluoroethyl)-1H-1,2,3-triazol-4-yl]acetyl}amino)-1H-pyrazol-5-yl]cyclopentyl (2S)-butan-2-ylcarbamate] | 1.79
COc1cnc(CC(=O)Nc2cc([C@H]3CC[C@@H](OC(=O)N4CC[C@@H]4C)C3)[nH]n2)cn1 [Example 592, (1R,3S)-3-(3-{[(5-methoxypyrazin-2-yl)acetyl]amino}-1H-pyrazol-5-yl)cyclopentyl (2S)-2-methylazetidine-1-carboxylate] | 2.27
COC[C@H](C)NC(=O)O[C@@H]1CC[C@H](c2cc(NC(=O)Cc3cnc(C(F)(F)F)cn3)n[nH]2)C1 [Example 523, (1R,3S)-3-[3-({[5-(trifluoromethyl)pyrazin-2-yl]acetyl}amino)-1H-pyrazol-5-yl]cyclopentyl [(2S)-1-methoxypropan-2-yl]carbamate] | 2.49
Cc1cc(CC(=O)Nc2cc([C@H]3CC[C@@H](OC(=O)NC4(C)CC4)C3)[nH]n2)no1 [Example 7, (1R,3S)-3-(3-{[(5-methyl-1,2-oxazol-3-yl)acetyl]amino}-1H-pyrazol-5-yl)cyclopentyl (1-methylcyclopropyl)carbamate] | 0.61
COCc1cc(C(=O)Nc2cc([C@H]3CC[C@@H](OC(=O)N4CC[C@@H]4C)C3)[nH]n2)n(C)n1 [Example 595, (1R,3S)-3-[3-({[3-(methoxymethyl)-1-methyl-1H-pyrazol-5-yl]carbonyl}amino)-1H-pyrazol-5-yl]cyclopentyl (2S)-2-methylazetidine-1-carboxylate] | 1.52
CC(CC(F)(F)F)NC(=O)O[C@@H]1CC[C@H](c2cc(NC(=O)c3ccnn3CCN(C)C)[nH]n2)C1 (single isomer, unassigned) [Example 409] | 4.15
COc1cnc(CC(=O)Nc2cc([C@H]3CC[C@@H](OC(=O)NC4(CC(F)(F)F)CC4)C3)[nH]n2)cn1 [Example 456, (1R,3S)-3-(3-{[(5-methoxypyrazin-2-yl)acetyl]amino}-1H-pyrazol-5-yl)cyclopentyl [1-2,2,2-trifluoroethyl)cyclopropyl] carbamate] | 0.38
COCc1cc(C(=O)Nc2cc([C@H]3CC[C@@H](OC(=O)NC4(C)CCOC4)C3)[nH]n2)n(C)n1 (single isomer, unassigned) [Example 488] | 1.4
Cc1cc(CC(=O)Nc2cc([C@H]3CC[C@@H](OC(=O)N4CCCC[C@@H]4C)C3)[nH]n2)on1 [Example 640, (1R,3S)-3-(3-{[(3-methyl-1,2-oxazol-5-yl)acetyl]amino}-1H-pyrazol-5-yl)cyclopentyl (2S)-2-methylpiperidine-1-carboxylate] | 0.48
C[C@@H](CF)NC(=O)O[C@@H]1CC[C@H](c2cc(NC(=O)Cc3cnn(C)c3)n[nH]2)C1 [Example 378, (1R,3S)-3-(3-{[(1-methyl-1H-pyrazol-4-yl)acetyl]amino}-1H-pyrazol-5-yl)cyclopentyl [(2S)-1-fluoropropan-2-yl]carbamate] | 0.83
CC1(NC(=O)O[C@@H]2CC[C@H](c3cc(NC(=O)CC4COc5ccccc54)n[nH]3)C2)CCOC1 (stereo partly drawn) [Example 491, (1R,3S)-3-(3-{[(3ξ)-2,3-dihydro-1-benzofuran-3-ylacetyl]amino}-1H-pyrazol-5-yl)cyclopentyl [(3ξ)-3-methyltetrahydrofuran-3-yl]carbamate] | 3.87
Cc1cc(CC(=O)Nc2cc([C@H]3CC[C@@H](OC(=O)N[C@@H](C)C4CC4)C3)[nH]n2)on1 [Example 468, (1R,3S)-3-(3-{[(3-methyl-1,2-oxazol-5-yl)acetyl]amino}-1H-pyrazol-5-yl)cyclopentyl [(1S)-1-cyclopropylethyl]carbamate] | 0.35
CCCNC(=O)O[C@H]1CC[C@@H](c2cc(NC(=O)Cc3cn4ccccc4n3)n[nH]2)C1 [Example 191, (1S,3R)-3-{3-[(imidazo[1,2-a]pyridin-2-ylacetyl)amino]-1H-pyrazol-5-yl}cyclopentyl propylcarbamate] | 3.33
COc1ccc(S(C)(=O)=O)c(CC(=O)Nc2cc([C@H]3CC[C@@H](OC(=O)NCCC(F)(F)F)C3)[nH]n2)c1 [Example 224, (1R,3S)-3-[3-({[5-methoxy-2-(methylsulfonyl)phenyl]acetyl}amino)-1H-pyrazol-5-yl]cyclopentyl (3,3,3-trifluoropropyl)carbamate] | 0.31
C[C@H]1[C@H](C#N)CN1C(=O)O[C@@H]1CC[C@H](c2cc(NC(=O)Cc3ccccc3)n[nH]2)C1 (single isomer, unassigned) [Example 162] | 3.01
